Test [1] deals with T1, Mu-type opioid receptor (Rattus norvegicus, UniProt P33535). Put plainly: Displacement of [3H]diprenorphine from rat MOR expressed in rat C6 cells after 1 hr by liquid scintillation counting analysis.
Test [2] has as its target Delta-type opioid receptor (Rattus norvegicus, UniProt P33533). In words: Displacement of [3H]diprenorphine from rat DOR expressed in rat C6 cells after 1 hr by liquid scintillation counting analysis.
Test [3] deals with T1, Mu-type opioid receptor. In words: Agonist activity at rat MOR expressed in rat C6 cells assessed as stimulation of [35S]GTPgammaS binding after 1 hr by liquid scintillation counting analysis. Background: Binding of GTPγS marks nucleotide exchange on a G protein.

T1 sequence (P33535 whole entry): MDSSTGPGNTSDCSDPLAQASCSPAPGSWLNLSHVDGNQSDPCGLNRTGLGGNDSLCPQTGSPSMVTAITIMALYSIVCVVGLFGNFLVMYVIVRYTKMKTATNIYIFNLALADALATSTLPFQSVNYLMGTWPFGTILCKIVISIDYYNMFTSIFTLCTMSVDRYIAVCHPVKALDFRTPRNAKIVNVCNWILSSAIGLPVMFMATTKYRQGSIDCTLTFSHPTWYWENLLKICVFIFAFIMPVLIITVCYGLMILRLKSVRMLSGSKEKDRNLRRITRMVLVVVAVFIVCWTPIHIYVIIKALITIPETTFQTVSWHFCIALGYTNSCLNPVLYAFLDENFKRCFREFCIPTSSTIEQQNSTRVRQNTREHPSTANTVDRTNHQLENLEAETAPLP
Delta-type opioid receptor, sequence (P33533 whole entry): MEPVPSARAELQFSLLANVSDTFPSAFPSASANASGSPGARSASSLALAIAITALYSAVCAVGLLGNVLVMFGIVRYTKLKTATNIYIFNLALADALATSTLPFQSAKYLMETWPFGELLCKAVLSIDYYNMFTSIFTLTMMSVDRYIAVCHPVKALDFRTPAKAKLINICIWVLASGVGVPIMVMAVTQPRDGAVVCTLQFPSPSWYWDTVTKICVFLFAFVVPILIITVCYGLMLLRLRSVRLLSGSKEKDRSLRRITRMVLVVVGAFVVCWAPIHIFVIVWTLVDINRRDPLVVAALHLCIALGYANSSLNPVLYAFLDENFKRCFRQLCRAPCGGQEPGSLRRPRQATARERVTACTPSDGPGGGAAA

By Ki is commonly meant a measure of affinity in units of concentration, obtained from inhibition or displacement. Regarding `Cc1cc(O)cc(C)c1C[C@H](N)C(=O)N[C@H]1CCNc2ccc(CCc3ccccc3)cc21`, the inhibition constant Ki in test [1] was 16 nM; in test [2] it was 120 nM.

Usually EC50 stands for the concentration that produces a half-maximal response. As for `Cc1cc(O)cc(C)c1C[C@H](N)C(=O)N[C@@H]1CCNc2ccc(CCc3ccccc3)cc21`, the Ki was 0.24 nM in test [1] and 8.9 nM in test [2]. Moreover, the 50% effective concentration (EC50) in test [3] was found to be 1.1 nM.

(Values after BindingDB's records for doi:10.1021/jm400050y (University of Michigan, 2013).)
